For this assay, the system named is Pseudomonas aeruginosa MB 2835. In words: In vivo activity against Pseudomonas aeruginosa MB 2835 systemic infections in mice (Table X). Details: species or system Pseudomonas aeruginosa; CD 1 female mice. As to conditions: for s.c./i.p. ED50 administration ratio: 10080 min; for ED50 i.p.: i.p. at 0 and 6 hours after infection; for ED50 i.p. / ED50 s.c.: multiplied by two doses, 7 days observation; for ED50 s.c.: s.c. at 0 and 6 hours after infection. The protocol:
The in vivo activities of Tejeramycin, components A through G were determined against Pseudomonas aeruginosa MB 2835 infections in mice. Experimental systemic infections were produced in CD 1 female mice (Charles River Breeding Labs., Wilmington, Ma.), average body weight 19-22 grams, by the intraperitoneal (i.p.) injection of a suitably diluted overnight culture of Pseudomonas aeruginosa MB-2835 in brain heart infusion broth (Difco). The challenge dose varied from about 11-50 LD50 's LD50 =median lethal dose, the dose that should kill 50% of the infected, untreated mice). Under these conditions, the infected, untreated mice died within 48 hours.
The antibiotics were administered as aqueous solutions by intraperitoneal or subcutaneous (s.c.) injection at 0 and 6 hours after infection. At least four different dose levels of the antibiotics were used; each dose group consisted of five mice. […] Statist. Assoc. 42: 282-296, 1947.
From rich cuts 1-9e described in Tables III and IV, a series of seven samples were prepared for in vivo evaluation. Sample composition as well as in vivo results are summarized in Table X. Carbenicillin and gentamicin were included as controls.

The text below walks through data of patent US4656036A, “Antibiotics Tejeramycin and production thereof” (Merck & Co., Inc., priority 1985, dated 1987).

On to Gentamicin, for which, for the setting “Example A”, the “s.c./i.p. ED50 administration ratio” value is recorded as 23, the ED50 i.p. stood at 0.013 mg and the ED50 s.c. stood at 0.30 mg. Further, where the note is “Example B”, the “s.c./i.p. ED50 administration ratio” value came out at 20, the ED50 i.p. is 0.0063 mg and the ED50 s.c. is recorded as 0.125 mg.
Turning to `CC1(C)S[C@@H]2[C@H](NC(=O)C(C(=O)O)c3ccccc3)C(=O)N2[C@H]1C(=O)O` (stereo partly drawn) [Carbenicillin], for the setting “Example A”, the “s.c./i.p. ED50 administration ratio” value turned out to be 3.2, the ED50 i.p. is 5.31 mg and the ED50 s.c. came out at 17.1 mg. Also, under “Example B”, the “s.c./i.p. ED50 administration ratio” value came to 1.5, the ED50 i.p. came to 4.14 mg and the ED50 s.c. is given as 6.04 mg.
